The values that follow come from ChEMBL document CHEMBL1157316, “Resin glycosides from the flowers of Ipomoea murucoides” (2006).

The structures appear in SMILES notation. Values after ≈ are worked out from the molar mass of the structure shown.

The first experiment deals with HEp-2. Briefly: Cytotoxicity against human Hep2 cells after 72 hrs by SRB method. It is filed as functional. To be noted: HEp-2, 72 h, read-out: ED50 (the source's name).
Regarding `CCCCC[C@H]1CCCCCCCCCC(=O)O[C@H]2[C@H](O[C@H]3[C@H](O1)O[C@H](C)[C@H](O)[C@@H]3O)O[C@@H](C)[C@H](O[C@@H]1O[C@@H](C)[C@H](O[C@@H]3O[C@@H](C)[C@H](O)[C@@H](O)[C@H]3O)[C@@H](O[C@@H]3O[C@@H](C)[C@H](O)[C@@H](O)[C@H]3O)[C@H]1OC(=O)[C@@H](C)CC)[C@H]2O` [MURUCOIDIN I], the EC50 is over 20 µg/mL. Consider `CC[C@]1(O)C[C@@H]2CN(CCc3c([nH]c4ccccc34)[C@@](C(=O)OC)(c3cc4c(cc3OC)N(C)[C@H]3[C@@](O)(C(=O)OC)[C@H](OC(C)=O)[C@]5(CC)C=CCN6CC[C@]43[C@@H]65)C2)C1` [VINBLASTINE], for which the EC50 is 0.001 µg/mL (≈ 0.00123 µM).

Turning to `CCCCC[C@H]1CCCCCCCCCC(=O)O[C@H]2[C@H](O[C@H]3[C@H](O1)O[C@H](C)[C@H](O)[C@@H]3O)O[C@@H](C)[C@H](O[C@@H]1O[C@@H](C)[C@H](O[C@@H]3O[C@@H](C)[C@H](OC(=O)[C@@H](C)CC)[C@@H](O)[C@H]3O)[C@@H](O[C@@H]3O[C@@H](C)[C@H](O)[C@@H](O)[C@H]3O)[C@H]1OC(=O)[C@@H](C)CC)[C@H]2O` [MURUCOIDIN III], the EC50 was over 20 µg/mL. Same read-out and setting: as for `CCCCC[C@H]1CCCCCCCCCC(=O)O[C@H]2[C@H](O[C@H]3[C@H](O1)O[C@H](C)[C@H](O)[C@@H]3O)O[C@@H](C)[C@H](O[C@@H]1O[C@@H](C)[C@H](O[C@@H]3O[C@@H](C)[C@H](OC(=O)C(C)C)[C@@H](O)[C@H]3O)[C@@H](O[C@@H]3O[C@@H](C)[C@H](O)[C@@H](O)[C@H]3O)[C@H]1OC(=O)[C@@H](C)CC)[C@H]2O` [MURUCOIDIN II], the figure is over 20 µg/mL; as for `CCCCC[C@H]1CCCCCCCCCC(=O)O[C@H]2[C@H](O[C@H]3[C@H](O1)O[C@H](C)[C@H](O)[C@@H]3O)O[C@@H](C)[C@H](O[C@@H]1O[C@@H](C)[C@H](O[C@@H]3O[C@@H](C)[C@H](OC(=O)[C@@H](C)CC)[C@@H](O)[C@H]3O)[C@@H](O[C@@H]3O[C@H](CO)[C@@H](O)[C@H](O)[C@H]3O)[C@H]1OC(=O)[C@@H](C)CC)[C@H]2O` [MURUCOIDIN IV], 4 µg/mL (≈ 3.42 µM).

As to `CCCCC[C@H]1CCCCCCCCCC(=O)O[C@H]2[C@@H](O)[C@H](O[C@H]3[C@H](O1)O[C@H](C)[C@H](O)[C@@H]3O)O[C@@H](C)[C@@H]2O[C@@H]1O[C@@H](C)[C@H](O[C@@H]2O[C@@H](C)[C@H](OC(=O)[C@@H](C)CC)[C@@H](O)[C@H]2O)[C@@H](O[C@@H]2O[C@@H](C)[C@H](O)[C@@H](O)[C@H]2O)[C@H]1OC(=O)[C@@H](C)CC` [STOLONIFERIN I], the EC50 was over 20 µg/mL.

As for `CCCCC[C@H]1CCCCCCCCCC(=O)O[C@H]2[C@@H](O)[C@H](O[C@H]3[C@H](O1)O[C@H](C)[C@H](O)[C@@H]3O)O[C@@H](C)[C@@H]2O[C@@H]1O[C@@H](C)[C@H](O[C@@H]2O[C@@H](C)[C@H](OC(=O)[C@@H](C)CC)[C@@H](O)[C@H]2O)[C@@H](O[C@@H]2O[C@H](CO)[C@@H](O)[C@H](O)[C@H]2O)[C@H]1OC(=O)[C@@H](C)CC` [MURUCOIDIN V], the EC50 is over 20 µg/mL.

Another experiment has as its system KB. Briefly: Cytotoxicity against human KB cells after 72 hrs by SRB method. It is filed as functional. The conditions noted are these: read-out: ED50 (the source's name). In general terms: In SRB staining, fixed cells bind dye roughly in proportion to their protein.
In the case of `CC[C@]1(O)C[C@@H]2CN(CCc3c([nH]c4ccccc34)[C@@](C(=O)OC)(c3cc4c(cc3OC)N(C)[C@H]3[C@@](O)(C(=O)OC)[C@H](OC(C)=O)[C@]5(CC)C=CCN6CC[C@]43[C@@H]65)C2)C1` [VINBLASTINE], the EC50 came out at 0.05 µg/mL (≈ 0.0617 µM).
